Source: ChEMBL document CHEMBL1926529, “Synthesis of novel benzofurocoumarin analogues and their anti-proliferative effect on human cancer cell lines” (2012)
The source made the active and inactive calls. The rule behind the calls is not given here.

Assays:
TCC-SUP [1] = test: Growth inhibition of human TCCSUP cells assessed as cell viability at 0.5 uM after 48 hrs by MTS assay; assay type: functional, cell-based
HeLa [2] = test: Growth inhibition of human HeLa cells assessed as cell viability after 48 hrs by MTS assay; assay type: functional
TCC-SUP [3] = test: Growth inhibition of human TCCSUP cells assessed as cell viability after 48 hrs by MTS assay; assay type: functional
HeLa [4] = test: Growth inhibition of human HeLa cells assessed as cell viability at 0.5 uM after 48 hrs by MTS assay; assay type: functional, cell-based
MDA-MB-231 [5] = test: Growth inhibition of human MDA-MB-231 cells assessed as cell viability at 0.5 uM after 48 hrs by MTS assay; assay type: functional, cell-based
MDA-MB-231 [6] = test: Growth inhibition of human MDA-MB-231 cells assessed as cell viability after 48 hrs by MTS assay; assay type: functional; conditions: MDA-MB-231, 48 h

| SMILES | GI50 (HeLa [2]) [nM] | GI50 (MDA-MB-231 [6]) [nM] | growth inhibition (GI) (TCC-SUP [1]) | GI50 (TCC-SUP [3]) [nM] | growth inhibition (GI) (HeLa [4]) | growth inhibition (GI) (MDA-MB-231 [5]) |
| --- | --- | --- | --- | --- | --- | --- |
| CCOC(=O)c1cc2c(ccc3oc4ccccc4c32)oc1=O | 2 | 83 | Active | 12 | Active | Active |
| CCOC(=O)C(CC(C)C)NC(=O)c1cc2c(ccc3oc4ccccc4c32)oc1=O (stereo not given) | 43 | 205 | Active | 122 | Active | Active |
| O=c1ccc2c(ccc3oc4ccccc4c32)o1 | 5 | 467 | Active | 31 | Active | Active |

The remaining compounds from weak to strong by GI50 (HeLa [2]), led by results:

| GI50 (HeLa [2]) [nM] | GI50 (MDA-MB-231 [6]) [nM] | SMILES | growth inhibition (GI) (TCC-SUP [1]) | GI50 (TCC-SUP [3]) [nM] | growth inhibition (GI) (HeLa [4]) | growth inhibition (GI) (MDA-MB-231 [5]) |
| --- | --- | --- | --- | --- | --- | --- |
| 53 | 106 | COC(=O)C(C)NC(=O)c1cc2c(ccc3oc4ccccc4c32)oc1=O (stereo not given) | Active | 159 | Active | Active |
| 3 | 97 | O=C(O)c1cc2c(ccc3oc4ccccc4c32)oc1=O | Active | 50 | Active | Active |
